Laboratory results published in US10478574B2, “Nasal administration” (OptiNose AS, priority 2006, dated 2019).

Legend:
[1] = Blood plasma pharmacokinetics of midazolam for three administration systems (Example #1); conditions: for Cl (obs) / Vz (obs): not corrected for bio-availability; for bio-availability: mean (95% CI); for AUC(0-t): AUClast
Procedure: In this study, twelve healthy subjects, 4 male and 8 female, were studied.
In separate sessions, the subjects received 3.4 mg of midazolam by one of three different administration systems, these being: • (i) an intravenous administration system in which a midazolam formulation was intravenously administered; • (ii) a conventional nasal spray administration system in which a midazolam formulation was conventionally nasally administered using a spray pump as supplied by Ing Erich Pfeiffer GmbH (Radolfsee, Germany) which is specified to generate a liquid spray with a mean particle size of 43 μm, with 100 μl of the formulation being delivered to each nostril; and • (iii) the bi-directional administration system of the first-described embodiment, and incorporating the same spray pump as the conventional nasal spray administration system, in which a midazolam formulation was nasally administered, with 100 μl of the formulation being delivered to each nostril.
Each study session was six hours in duration, and the sessions were separated by at least one week.
The intravenous formulation was a commercial midazolam HCl formulation (1 mg/ml (free base)) as supplied by Alpharma Inc (New Jersey, USA).
The nasal formulation was an aqueous solution containing midazolam base (1.7% w/v), sulfobutylether-β-cyclodextrin sodium salt with a molar substitution of 6.2 (Captisol®) (14% w/v) as supplied by CyDex Inc (Kansas, USA), hydroxypropyl methylcellulose (0.1% w/v), benzalkonium chloride (0.02% w/v), ethylene diaminetetraacetic acid (0.1% w/v) and phosphoric acid (0.73% w/v). The pH of the formulation was adjusted to a pH of between 4.20 and 4.35 with sodium hydroxide.
Venous blood samples, each having a volume of 9 ml, were drawn just prior to administration and at 2, 5, 10, 15, 20, 25, 30, 35, 45, 60, 90, 120, 240 and 360 minutes after administration, in order to allow for a determination of the blood plasma concentration of midazolam.
The blood plasma concentration of midazolam was determined according to Martens et al.
Samples, spiked with diazepam as an internal standard, were alkalised and extracted by toluene containing 0.1% w/v amyl alcohol. The resulting organic phase for each of the samples was then evaporated and the residue for each of the samples was derivatized with TBDMSTFA (/tert/-Butyldimethylsilyl)-N-methyltrifluoroacetamide with 1% w/v tert-butyldimethylsilyllchloride) at 60 °C. After the excess of TBDMSTFA was evaporated, the residue for each of the samples was dissolved in ethyl acetate and analyzed in a gas chromatograph, in this embodiment an HP 5890 gas chromatograph equipped with an HP 5972 mass-spectrometry detector as supplied by Hewlett Packard Inc (USA). The midazolam and diazepam components were quantified by the mass ions 310 and 256, respectively.
In this study, the midazolam clearance, the volume of distribution, the elimination rate, the maximum plasma concentration Cmax, the time maximum plasma concentration Tmax, and the area under the curve AUC (linear trapezoidal rule) were calculated by computerized curve fitting using the Win-Nonlin Standard 4.1 as supplied by Pharsight Corporation (California, USA). The systemic clearance (Cl)=dose/AUCiv, the apparent nasal clearances (Cln)=dose/AUCn, and the respective bioavailabilities (Fx)=(AUCx/dosey)/(AUCy/dosex) were determined from the calculated values.
In the results, the data is given as a median (min-max) or a mean (95% confidence interval (CI)). Regression analysis and ANOVA were used as appropriate. A bi-variate correlation (Pearson) was used to determine associations between variables. A paired sample t-test was used for group comparisons.

[2] = Subjective sedation score on numeric rating scale (NRS) 0-10 after midazolam (Example #1); format: in vivo, human
Procedure: Subjective sedation was scored by a numeric rating scale (NRS) 0-10, where 0 is fully awake and 10 is falling asleep or as tired as you can imagine at 0, 2, 5, 10, 15, 20, 25, 30, 35, 45, 60, 90, 120 and 360 minutes after administration.

[3] = bi-directional nasal administration system, 3.4 mg, mean
[4] = both, human, plasma, inhaled or intranasal, 3.4 mg, bi-directional nasal administration system, mean
[5] = both, human, plasma, inhaled or intranasal, 3.4 mg, conventional nasal spray administration system, mean
[6] = both, human, plasma, iv, 3.4 mg
[7] = both, human, plasma, iv, 3.4 mg, intravenous administration system, mean
[8] = conventional nasal spray administration system, 3.4 mg, mean

Cc1ncc2n1-c1ccc(Cl)cc1C(c1ccccc1F)=NC2 [midazolam]
AUCinf [1, 3]: 5364 ng·min/mL | Cl (obs) [1, 3]: 589 mL/min | Vz (obs) [1, 3]: 98551 mL | bio-availability ([1]; bi-directional spray administration system vs intravenous): 0.69 (0.57, 0.81) | AUC(0-inf) ([1]; both, human, plasma, inhaled or intranasal, 3.4 mg): 87.8 ng·h/mL | AUC(0-t) [1, 4]: 76.9 ng·h/mL | AUC(0-t) [1, 5]: 77.1 ng·h/mL | Cmax [1, 4]: 44 ng/mL | Cmax [1, 5]: 53 ng/mL | half-life ([1]; both, human, plasma, inhaled or intranasal, 3.4 mg, T1/2, bi-directional nasal administration system, mean): 1.98 h | half-life ([1]; both, human, plasma, inhaled or intranasal, 3.4 mg, T1/2, conventional nasal spray administration system, mean): 1.9 h | Tmax [1, 4]: 0.267 h | Tmax [1, 5]: 0.25 h | AUC(0-inf) [1, 6]: 136 ng·h/mL | Vd [1, 6]: 65.4 L | clearance [1, 6]: 451 mL/min | AUC(0-t) [1, 7]: 122 ng·h/mL | Cmax [1, 7]: 152 ng/mL | half-life ([1]; both, human, plasma, iv, 3.4 mg, T1/2, intravenous administration system, mean): 1.73 h | Tmax [1, 7]: 0.0417 h | Cl (obs) [1, 8]: 551 mL/min | Vz (obs) [1, 8]: 90691 mL | bio-availability ([1]; conventional spray administration system vs intravenous): 0.68 (037, 0.80) | CNS effect (sedation score as a function of blood plasma concentration) ([2]; bi-directional administration system compared with conventional nasal spray): substantially greater CNS effect than the conventional nasal spray administration system | sedation scores ([2]; bi-directional administration system compared with intravenous, 3.4 mg, median NRS): equivalent to those of the intravenous administration system | onset of action ([2]; bi-directional administration system compared with the other systems, 3.4 mg): considerably faster than the conventional nasal spray administration system | ratio of peak CNS effect to Cmax relative to intravenous administration ([2]; bi-directional administration system, 3.4 mg): about 3.5 times
